{"source": "patent US6420422B1", "about": "“Ocular hypotensive agents” (Sucampo Pharmaceuticals, Inc., priority 1987, dated 2002)", "key": {"[1]": {"conditions": "prior art statement; cited from earlier work"}, "[2]": {"tested_on": "Japanese White male rabbits", "experiment": "Intraocular pressure reduction and conjunctival hyperemia (Example 5, Table 1 (1)-(6))", "assay_type": "in vivo", "conditions": "intraocular pressure reduction (%), topical", "experimental": "(§1) For the purpose of tonometry, Japanese White male rabbits (2.5-3.0 Kg) were fixed on braces. After topical anesthetization with 0.4% oxybuprocaine hydrochloride, intraocular pressure was measured using a pheumatic applanation tonometer (manufactured by Japan Alcon). After the topical application of 50 μl of the suspensions of the test drugs in a physiological saline to one eye, the intraocular pressure was measured and the intraocular pressure reduction (%) caused by each test drug was calculated. At the same time, the extent of conjunctival hyperemia was observed."}, "[3]": {"tested_on": "Japanese White male rabbits", "experiment": "Intraocular pressure reduction and conjunctival hyperemia (Example 5, Table 1 (1)-(6))", "assay_type": "in vivo", "design": "key: −: none; +−: barely visible hyperemia; +: slight hyperemia; ++: moderate hyperemia; +++: severe hyperemia; +++*: *: lid-closing and severe hyperemia are observed", "conditions": "extent of conjunctival hyperemia; topical, dose 100 μg/eye", "experimental": "as §1"}, "[4]": {"tested_on": "Japanese White male rabbits", "experiment": "Intraocular pressure reduction and conjunctival hyperemia (Example 5, Table 1 (1)-(6))", "assay_type": "in vivo", "design": "key: −: scarcely observed; ±: extremely weak hyperemia; +: slight hyperemia; ++: pronounced hyperemia; +++: severe hyperemia; +++*: *: Lid closure and lacrimation were observed", "conditions": "extent of conjunctival hyperemia, topical", "experimental": "as §1"}, "[5]": {"tested_on": "Japanese White male rabbits", "experiment": "Change in intraocular pressure with time after application (Example 4, FIG. 1)", "assay_type": "in vivo", "conditions": "topical 25 μg/eye, every 1 hr until 6 hr, 6 rabbits per group", "experimental": "FIG. 1 is a graph showing change in intraocular pressure with time after application of prostaglandins E2 to rabbits, wherein applied drugs were as follows:\nFor the purpose of tonometry, Japanese White male rabbits (2.5-3.0 Kg) were fixed on braces, and after topical anesthetization with 0.4% oxybuprocaine hydrochloride, intraocular pressure was measured using a pheumatic applanation tonometer (manufactured by Japan Alcon K.K.).\nThe test drugs were suspended in a physiological saline. A 50 μl aliquot […] of the suspension (25 μg/eye of the test drug) was topically applied to one eye. The contralateral control eye received physiological saline. Intraocular pressure was measured at every 1 hr, until 6 hr, after topical application. In this experiment, 6 rabbits per group were used, and the mean values of intraocular pressure of the treated eye at each time were calculated."}}}
{"compound": "CCCCCC(=O)/C=C/[C@@H]1[C@@H](C/C=C\\CCCC(=O)O)[C@@H](O)C[C@H]1O", "note": "[15-keto-PGF2]", "values": [{"measurement": "Ocular hypotensive activity (in words)", "setting": "[1]", "result": "a very little"}]}
{"compound": "CCCCC[C@H](O)/C=C/[C@@H]1[C@@H](C/C=C\\CCCC(=O)O)[C@@H](O)C[C@H]1O", "note": "[PGF2]", "values": [{"measurement": "Ocular hypotensive activity (in words)", "setting": "[1]", "result": "high ocular hypotensive activity"}]}
{"compound": "CCCCC(F)C(=O)CCC1C(=O)CC(O)C1C/C=C\\CCCC(=O)OC", "note": "(stereo not shown) [Test Drug (35), 13,14-dihydro-15-keto-16R,S-fluoro-PGD2 methyl ester]", "values": [{"measurement": "Percent change of IOP", "setting": "[2]; dose 100 μg/eye", "result": 13, "unit": "%"}, {"measurement": "Hyperemia", "setting": "[3]", "result": "+"}]}
{"compound": "CCCCCC(=O)CCC1C(=O)CC(O)C1C/C=C\\CCCC(=O)OCC", "note": "(stereo not shown) [Test Drug (30), 13,14-dihydro-15-keto-PGD2 ethyl ester]", "values": [{"measurement": "Percent change of IOP", "setting": "[2]; dose 250 μg/eye", "result": 20, "unit": "%"}, {"measurement": "Hyperemia", "setting": "[4]; dose 250 μg/eye", "result": "±"}]}
{"compound": "CCCCCCCC(=O)CCC1C=CC(=O)C1C/C=C\\CCCC(=O)OC(C)C", "note": "(stereo not shown) [Test Drug (8), 13,14-dihydro-15-keto-20-ethyl-PGA2 isopropyl ester]", "values": [{"measurement": "Percent change of IOP", "setting": "[2]; dose 50 μg/eye", "result": 27, "unit": "%"}, {"measurement": "Hyperemia", "setting": "[4]; dose 50 μg/eye", "result": "−"}]}
{"compound": "CCCCCC(=O)CCC1C=CC(=O)C1C/C=C\\CCCC(=O)OCC", "note": "(stereo not shown) [Test Drug (3), 13,14-dihydro-15-keto-PGA2 ethyl ester]", "values": [{"measurement": "Percent change of IOP", "setting": "[2]; dose 100 μg/eye", "result": 24, "unit": "%"}, {"measurement": "Hyperemia", "setting": "[3]", "result": "+"}]}
{"compound": "CCCCCC(=O)CC[C@H]1[C@H](O)CC(=O)[C@@H]1C/C=C\\CCCC(=O)O", "note": "[Test Drug (56), 13,14-dihydro-15-keto-PGE2]", "values": [{"measurement": "Intraocular pressure response (in words)", "setting": "[5]", "result": "ocular hypotensive potency without transient ocular hypertensive response"}]}
{"compound": "CCCCCCCCC(=O)CCC1C(O)CC(O)C1C/C=C\\CCCC(=O)OC", "note": "(stereo not drawn) [Test Drug (90), 13,14-dihydro-15-keto-20-n-propyl-PGF2^α methyl ester]", "values": [{"measurement": "Percent change of IOP", "setting": "[2]; dose 250 μg/eye", "result": 25, "unit": "%"}, {"measurement": "Hyperemia", "setting": "[4]; dose 250 μg/eye", "result": "±"}]}
{"compound": "CCCCCC(=O)CCC1C(=O)CC(O)C1CC#CCCCC(=O)OC", "note": "(stereo not drawn) [Test Drug (34), 13,14-dihydro-15-keto-5,6-dehydro-9β-PGD2 methyl ester]", "values": [{"measurement": "Percent change of IOP", "setting": "[2]; dose 250 μg/eye", "result": 23, "unit": "%"}, {"measurement": "Hyperemia", "setting": "[4]; dose 250 μg/eye", "result": "±"}]}
{"compound": "CCCCC[C@H](O)/C=C/[C@H]1[C@H](O)CC(=O)[C@@H]1C/C=C\\CCCC(=O)O", "note": "[Test Drug (73), PGE2, reference compound]", "values": [{"measurement": "Intraocular pressure response (in words)", "setting": "[5]", "result": "transient ocular hypertensive response"}]}
